According to patent US8530461B2 (Boehringer Ingelheim International GmbH, priority 2011, dated 2013):

Target: T1, human ACC2 (Homo sapiens, UniProt O00763)
T1 construct: made in house; host or cells: insect cells (baculoviral expression system)
Test: ACC2 assay, spectrophotometric 384 well assay (NADH-linked, coupled lactate dehydrogenase/pyruvate kinase)
Type: biochemical
Details: ACC2 assay; human ACC2 construct lacking 128 N-terminal amino acids; 25° C., 340 nm, 15 minutes; read-out: IC50
Experimental: Spectrophotometric 384 Well Assay
Malonyl CoA formation by acetyl CoA carboxylases is stoichometrically linked to the consumption of ATP. ACC2 activity is measured in a NADH-linked kinetic method measuring ADP generated during the ACC reaction using a coupled lactate dehydrogenase/pyruvate kinase reaction.
For biological testing, a human ACC2 construct which lacks the 128 amino acids at the N-terminus for increased solubility (nt 385-6966 in Genbank entry AJ575592) is cloned. The protein is then expressed in insect cells using a baculoviral expression system. Protein purification is performed by anion exchange.
All compounds are dissolved in dimethyl sulfoxide (DMSO) to a concentration of 10 mM.
Assay reactions are then carried out in 384-well plates, with hACC2 in an appropriate dilution and at final assay concentrations (f.c.) of 100 mM Tris (pH 7.5), 10 mM trisodium citrate, 25 mM KHCO3, 10 mM MgCl2, 0.5 mg/ml BSA, 3.75 mM reduced L-glutathione, 15 U/ml lactate dehydrogenase, 0.5 mM phosphoenolpyruvate, 15 U/ml pyruvate kinase, compounds at different concentrations at final DMSO concentrations of 1%.
The enzymatic reaction is then started by addition of a mixture of NADH, acetyl Coenzyme A (both […].) and ATP (500 uM f.c.). The decrease of the optical density (slope S) is then determined at 25° C. at a wavelength of 340 nm over 15 minutes in a spectrophotometric reader.
Each assay microtiter plate contains wells with vehicle instead of compound as controls for the non-inhibited enzyme (100% CTL; ‘HIGH’) and wells without acetyl-CoA as controls for non-specific NADH degradation (0% CTL; ‘LOW’).
The slope S is used for calculation of % CTL=(S(compound)−S(‘LOW’))/(S(‘HIGH’)−S(‘LOW’))100. Compounds will give values between 100% CTL (no inhibition) and 0% CTL (complete inhibition).
For IC50 value determination, the sample slope in the presence of the test compound after subtraction of the low controls (S(compound)−S(‘LOW’)) are used.
An IC50 value is derived from the compound slopes at different dosages after subtraction of the low controls (S(compound)−S(‘LOW’)) by non-linear regression curve fitting (equation y=(A+((B−A)/(1+((C/x)^D))))).

T1 sequence (O00763 129-2458 limits assumed): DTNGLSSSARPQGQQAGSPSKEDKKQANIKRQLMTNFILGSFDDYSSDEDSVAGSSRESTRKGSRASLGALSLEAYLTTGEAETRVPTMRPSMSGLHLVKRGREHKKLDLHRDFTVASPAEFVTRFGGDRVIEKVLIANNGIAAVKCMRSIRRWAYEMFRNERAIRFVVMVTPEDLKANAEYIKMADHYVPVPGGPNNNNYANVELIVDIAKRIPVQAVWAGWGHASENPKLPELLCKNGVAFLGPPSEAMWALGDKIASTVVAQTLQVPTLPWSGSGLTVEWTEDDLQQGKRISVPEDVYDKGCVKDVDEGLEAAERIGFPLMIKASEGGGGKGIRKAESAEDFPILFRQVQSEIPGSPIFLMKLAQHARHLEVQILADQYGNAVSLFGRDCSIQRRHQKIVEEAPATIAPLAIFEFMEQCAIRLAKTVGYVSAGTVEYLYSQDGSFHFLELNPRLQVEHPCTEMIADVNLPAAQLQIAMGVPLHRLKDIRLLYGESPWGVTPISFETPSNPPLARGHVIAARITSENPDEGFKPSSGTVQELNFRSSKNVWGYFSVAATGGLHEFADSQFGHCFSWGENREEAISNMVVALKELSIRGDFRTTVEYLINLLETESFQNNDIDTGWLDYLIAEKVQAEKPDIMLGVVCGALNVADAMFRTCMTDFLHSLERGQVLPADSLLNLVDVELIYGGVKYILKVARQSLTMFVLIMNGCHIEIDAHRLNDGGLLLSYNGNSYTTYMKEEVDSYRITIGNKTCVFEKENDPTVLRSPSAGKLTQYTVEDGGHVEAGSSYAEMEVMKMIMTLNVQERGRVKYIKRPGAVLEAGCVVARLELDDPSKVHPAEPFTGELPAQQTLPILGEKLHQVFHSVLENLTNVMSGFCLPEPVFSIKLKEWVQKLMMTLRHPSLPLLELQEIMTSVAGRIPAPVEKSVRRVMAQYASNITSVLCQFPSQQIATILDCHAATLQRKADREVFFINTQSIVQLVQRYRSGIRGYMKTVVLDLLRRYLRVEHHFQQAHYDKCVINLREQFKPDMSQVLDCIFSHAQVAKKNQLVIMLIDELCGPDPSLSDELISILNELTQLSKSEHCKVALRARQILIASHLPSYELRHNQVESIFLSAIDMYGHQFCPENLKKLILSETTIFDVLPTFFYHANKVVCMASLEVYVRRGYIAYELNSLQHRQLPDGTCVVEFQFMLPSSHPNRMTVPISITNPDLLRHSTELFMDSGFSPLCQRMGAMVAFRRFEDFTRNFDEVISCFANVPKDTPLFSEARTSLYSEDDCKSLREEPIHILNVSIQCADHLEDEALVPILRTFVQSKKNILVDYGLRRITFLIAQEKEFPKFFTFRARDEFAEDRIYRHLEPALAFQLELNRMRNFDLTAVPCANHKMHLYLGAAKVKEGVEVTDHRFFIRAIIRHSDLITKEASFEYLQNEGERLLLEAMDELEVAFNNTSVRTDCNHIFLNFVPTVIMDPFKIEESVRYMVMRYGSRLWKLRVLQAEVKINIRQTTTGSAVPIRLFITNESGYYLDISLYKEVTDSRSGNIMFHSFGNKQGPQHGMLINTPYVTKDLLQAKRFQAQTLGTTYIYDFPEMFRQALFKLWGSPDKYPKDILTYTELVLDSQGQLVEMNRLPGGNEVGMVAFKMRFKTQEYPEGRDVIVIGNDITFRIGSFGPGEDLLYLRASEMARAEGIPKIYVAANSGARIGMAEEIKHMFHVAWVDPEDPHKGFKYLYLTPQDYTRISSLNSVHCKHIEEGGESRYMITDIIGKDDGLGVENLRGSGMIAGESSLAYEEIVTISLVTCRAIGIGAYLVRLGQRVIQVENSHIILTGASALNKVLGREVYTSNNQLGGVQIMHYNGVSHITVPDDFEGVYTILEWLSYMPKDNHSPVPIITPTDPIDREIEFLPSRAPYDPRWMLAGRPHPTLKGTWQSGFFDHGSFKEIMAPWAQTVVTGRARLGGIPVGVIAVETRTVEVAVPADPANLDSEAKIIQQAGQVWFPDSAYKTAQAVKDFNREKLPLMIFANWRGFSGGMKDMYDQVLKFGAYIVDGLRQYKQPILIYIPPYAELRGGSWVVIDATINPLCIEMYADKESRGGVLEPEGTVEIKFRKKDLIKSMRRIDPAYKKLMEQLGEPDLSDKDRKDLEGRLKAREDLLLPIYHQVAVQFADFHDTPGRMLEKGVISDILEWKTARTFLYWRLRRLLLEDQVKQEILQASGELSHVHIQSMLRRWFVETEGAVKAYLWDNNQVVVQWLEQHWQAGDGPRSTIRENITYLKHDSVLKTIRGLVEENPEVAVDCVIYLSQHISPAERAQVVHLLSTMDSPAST

`COc1ccc(OC2CN(c3ccc([C@H](C)NC(C)=O)cc3)C2)c(Cl)c1` [Example 10.29] and `COc1ccc(OC2CN(c3ccc([C@H](C)NC(C)=O)cc3)C2)cn1` [Example 10.8] are within 1.5-fold of each other in IC50: 0.57 µM for the first, 0.74 µM for the second.

First: CCOc1ccc(OC2CN(c3ccc([C@H](C)NC(=O)Cc4cccnc4)cc3)C2)cc1 [Example 1.52]
Second: CCOc1ccc(OC2CN(c3ccc([C@H](C)NC(=O)Cc4cncnc4)cc3)C2)cc1 [Example 1.22]
The IC50 of the first is 2.2-fold higher: 0.97 µM for the first, 0.45 µM for the second.

`CCOc1ccc(OC2CN(c3ccc([C@H](C)NC(=O)C4CC(=O)N(C)C4)cc3)C2)cc1` (stereo partly shown) [Example 1.46] and `CCOc1ccc(OC2CN(c3ccc([C@H](C)NC(=O)C4CCC(=O)N4)cc3)C2)cc1` (stereo partly shown) [Example 1.59] are within 1.5-fold of each other in IC50: 1.73 µM for the first, 2.06 µM for the second.

`CC(=O)N[C@@H](C)c1ccc(N2CC(Oc3cccc(C4CC4)n3)C2)cc1` [Example 12.10] and `CC(=O)N[C@@H](C)c1ccc(N2CC(Oc3cccc(C)n3)C2)cc1` [Example 12.5] are within 1.5-fold of each other in IC50: 0.45 µM for the first, 0.53 µM for the second.

First: CCOc1c(F)cc(OC2CN(c3ccc([C@H](C)NC(=O)C4CC4)cc3)C2)cc1F [Example 10.30]
Second: CCOc1cc(F)c(OC2CN(c3ccc([C@H](C)NC(C)=O)cc3)C2)c(F)c1 [Example 10.6]
The IC50 of the first is 4.7-fold higher: 1.56 µM for the first, 0.33 µM for the second.

First: CCOc1ccc(OC2CN(c3ccc([C@H](C)NC(=O)C4(C#N)CC4)cc3)C2)cc1 [Example 1.18]
Second: CCOc1ccc(OC2CN(c3ccc([C@H](C)NC(=O)C4(C)CCC4)cc3)C2)cc1 [Example 1.1, (S)-1-Methyl-cyclobutanecarboxylic acid (1-{4-[3-(4-ethoxy-phenoxy)-azetidin-1-yl]-phenyl}-ethyl)-amide]
The IC50 of the first is 7.6-fold lower: 0.34 µM for the first, 2.59 µM for the second. The first is the more potent here.

`CCOc1ccc(OC2CN(c3ccc([C@H](C)NC(=O)c4ocnc4C)cc3)C2)cc1` [Example 1.35] and `CCOc1ccc(OC2CN(c3ccc([C@H](C)NC(=O)c4cocn4)cc3)C2)cc1` [Example 1.20] are within 1.5-fold of each other in IC50: 0.4 µM for the first, 0.33 µM for the second.

Compared with `CC(=O)N[C@@H](C)c1ccc(N2CC(Oc3cccc(OCC4CC4(F)F)n3)C2)cc1` (stereo partly shown) [Example 12.18], `CCOc1cccc(OC2CN(c3ccc([C@H](C)NC(C)=O)cc3)C2)n1` [Example 12.16] is 1.7-fold lower in IC50: 0.65 µM for the first, 0.38 µM for the second.

Compared with `CCOc1ccc(OC2CN(c3ccc([C@H](C)NC(=O)CC(F)(F)F)cc3)C2)cc1` [Example 1.75], `CCOc1ccc(OC2CN(c3ccc([C@H](C)NC(=O)C(F)F)cc3)C2)cc1` [Example 1.73] is 2.6-fold lower in IC50: 0.41 µM for the first, 0.16 µM for the second. The second is the more potent here.

`CCOc1ccc(OC2CN(c3ccc([C@H](C)NC(=O)Cc4c[nH]cn4)cc3)C2)cc1` [Example 1.47] and `CCOc1ccc(OC2CN(c3ccc([C@H](C)NC(=O)c4c[nH]cn4)cc3)C2)cc1` [Example 1.29] are within 1.5-fold of each other in IC50: 1.33 µM for the first, 1.16 µM for the second.

Going from `CCOc1ccc(OC2CN(c3ccc([C@H](C)NC(=O)c4cnon4)cc3)C2)cc1` [Example 1.84] to `CCOc1ccc(OC2CN(c3ccc([C@H](C)NC(=O)c4ccon4)cc3)C2)cc1` [Example 1.36], the IC50 rises from 0.73 µM to 1.61 µM (2.2-fold). The first is the more potent here.

First: CC(C)COc1cc(OC2CN(c3ccc(C(C)NC(=O)C4CC4)cc3)C2)ccn1 (stereo not shown) [Example 11.7]
Second: CC(=O)N[C@@H](C)c1ccc(N2CC(Oc3ccnc(OCC(C)C)c3)C2)cc1 [Example 11.3]
The IC50 of the first is 3.8-fold higher: 0.23 µM for the first, 0.06 µM for the second. The second is the more potent here.

Compared with `CCOc1ccc(OC2CN(c3ccc([C@H](C)NC(=O)c4cn[nH]c4)cc3)C2)cc1` [Example 1.11], `CCOc1ccc(OC2CN(c3ccc([C@H](C)NC(=O)Nc4cc[nH]n4)cc3)C2)cc1` [Example 4.7] is 11-fold higher in IC50: 0.21 µM for the first, 2.31 µM for the second.

Compared with `CCOc1ccc(OC2CN(c3ccc([C@H](C)NC(=O)Cc4ccccn4)cc3)C2)cc1` [Example 1.81], `CCOc1ccc(OC2CN(c3ccc([C@H](C)NC(=O)Cc4cc[nH]c4)cc3)C2)cc1` [Example 1.49] is 1.6-fold lower in IC50: 2.33 µM for the first, 1.47 µM for the second. The second is the more potent here.

First: C[C@H](NC(=O)C1(C)CC1)c1ccc(N2CC(Oc3ccc(OCC4CC4)cc3)C2)cc1 [Example 1.89]
Second: CCNC(=O)N[C@@H](C)c1ccc(N2CC(Oc3ccc(OCC4CC4)cc3)C2)cc1 [Example 4.16]
The IC50 of the first is 2.3-fold lower: 0.12 µM for the first, 0.28 µM for the second.

First: CC(=O)N[C@@H](C)c1ccc(N2CC(Oc3cccc(C(C)C)n3)C2)cc1 [Example 12.19]
Second: CC(=O)N[C@@H](C)c1ccc(N2CC(Oc3cccc(C(F)F)n3)C2)cc1 [Example 12.12]
The IC50 of the first is 2.3-fold higher: 0.23 µM for the first, 0.1 µM for the second. The second is the more potent here.

`C[C@H](NC(=O)OC(C)(C)C)c1ccc(N2CC(Oc3ccc(OCC4CC4)cc3)C2)cc1` [Example 8.3, (S)-(1-{4-[3-(4-Cyclopropylmethoxy-phenoxy)-azetidin-1-yl]-phenyl}-ethyl)-carbamic acid tert-butyl ester] and `C#CC(C)(C)C(=O)N[C@@H](C)c1ccc(N2CC(Oc3ccc(OCC)cc3)C2)cc1` [Example 1.63] are within 1.5-fold of each other in IC50: 1.37 µM for the first, 0.93 µM for the second.

First: CCOc1ccc(OC2CN(c3ccc([C@H](C)NC(=O)N(C)c4cccnc4)cc3)C2)cc1 [Example 4.13]
Second: CCOc1ccc(OC2CN(c3ccc([C@H](C)NC(=O)N(C)CC)cc3)C2)cc1 [Example 4.9]
The IC50 of the first is 2.3-fold lower: 0.37 µM for the first, 0.86 µM for the second.

Going from `CCCOc1cccc(OC2CN(c3ccc([C@H](C)NC(C)=O)cc3)C2)n1` [Example 12.3] to `CCc1cccc(OC2CN(c3ccc([C@H](C)NC(C)=O)cc3)C2)n1` [Example 12.11], the IC50 falls from 0.73 µM to 0.33 µM (2.2-fold).

Compared with `CCOc1ccc(OC2CN(c3ccc([C@H](C)NC(=O)c4cncc(NC(C)=O)c4)cc3)C2)cc1` [Example 1.78], `CCOc1ccc(OC2CN(c3ccc([C@H](C)NC(=O)c4csc(NC(C)=O)n4)cc3)C2)cc1` [Example 1.44] is 1.7-fold higher in IC50: 0.36 µM for the first, 0.61 µM for the second. The first is the more potent here.

First: CCOc1ccc(OC2CN(c3ccc([C@H](C)NC(=O)c4nc(C)sc4C)cc3)C2)cc1 [Example 1.50]
Second: CCOc1ccc(OC2CN(c3ccc([C@H](C)NC(=O)C(C)C)cc3)C2)cc1 [Example 1.5]
The IC50 of the first is 8.8-fold higher: 1.06 µM for the first, 0.12 µM for the second. The second is the more potent here.

Going from `CCOc1ccc(OC2CN(c3ccc([C@H](C)NC(=O)N(C)C(C)C)cc3)C2)cc1` [Example 4.10] to `CCOc1ccc(OC2CN(c3ccc([C@H](C)NC(=O)C(C)CC)cc3)C2)cc1` (stereo partly shown) [Example 1.71], the IC50 falls from 3.1 µM to 0.71 µM (4.4-fold).

Going from `Cc1cc2cc(OC3CN(c4ccc([C@H](C)NC(=O)C5CC5)cc4)C3)ccc2o1` [Example 10.27] to `CC(=O)N[C@@H](C)c1ccc(N2CC(Oc3ccc4oc(C)cc4c3)C2)cc1` [Example 10.11], the IC50 falls from 0.17 µM to 0.1 µM (1.7-fold). The second is the more potent here.

First: COc1ccc(OC2CN(c3ccc([C@H](C)NC(C)=O)cc3)C2)c(F)c1F [Example 10.18]
Second: CC(=O)N[C@@H](C)c1ccc(N2CC(Oc3ccccc3C)C2)cc1 [Example 10.15]
The IC50 of the first is 1.7-fold lower: 0.56 µM for the first, 0.95 µM for the second. The first is the more potent here.

First: CCOc1ccc(OC2CN(c3ccc([C@H](C)NC(=O)CCCNC(C)=O)cc3)C2)cc1 [Example 1.55]
Second: CCOc1ccc(OC2CN(c3ccc([C@H](C)NC(=O)CCC#N)cc3)C2)cc1 [Example 1.80]
The IC50 of the first is 2.4-fold lower: 0.44 µM for the first, 1.06 µM for the second.

`CCC(C)c1ccc(OC2CN(c3ccc([C@H](C)NC(=O)C4CC4)cc3)C2)cc1` (stereo partly shown) [Example 10.26] and `CCOc1ccc(OC2CN(c3ccc([C@H](C)NC(=O)C4CC4C)cc3)C2)cc1` (stereo partly shown) [Example 1.9] are within 1.5-fold of each other in IC50: 0.37 µM for the first, 0.46 µM for the second.

`CC(=O)N[C@@H](C)c1ccc(N2CC(Oc3cccc(N4CCOCC4)n3)C2)cc1` [Example 12.15] and `CC(=O)N[C@@H](C)c1ccc(N2CC(Oc3ccccc3)C2)cc1` [Example 10.12] are within 1.5-fold of each other in IC50: 0.83 µM for the first, 0.79 µM for the second.

Compared with `CC(=O)N[C@@H](C)c1ccc(N2CC(Oc3ccnc(OCC4CC4)c3)C2)cc1` [Example 11.1, (S)—N-(1-{4-[3-(2-Cyclopropylmethoxy-pyridin-4-yloxy)-azetidin-1-yl]-phenyl}-ethyl)-acetamide], `CC(=O)N[C@@H](C)c1ccc(N2CC(Oc3ccc(C(F)(F)F)cn3)C2)cc1` [Example 8.8, (S)—N-(1-{4-[3-(5-Trifluoromethyl-pyridin-2-yloxy)-azetidin-1-yl]-phenyl}-ethyl)-acetamide] is 10-fold higher in IC50: 0.08 µM for the first, 0.81 µM for the second. The first is the more potent here.

Going from `CCOc1ccc(OC2CN(c3ccc([C@H](C)NC(=O)C(C)C#N)cc3)C2)cc1` (stereo partly shown) [Example 1.82] to `CCOc1ccc(OC2CN(c3ccc([C@H](C)NC(=O)C(C)(C)C#N)cc3)C2)cc1` [Example 1.68], the IC50 rises from 0.27 µM to 1.52 µM (5.6-fold). The first is the more potent here.

First: CCOc1ccc(OC2CN(c3ccc([C@H](C)NC(=O)Cn4cncn4)cc3)C2)cc1 [Example 1.61]
Second: CCOc1ccc(OC2CN(c3ccc([C@H](C)NC(=O)N(C)C)cc3)C2)c(F)c1 [Example 8.1, (S)-3-(1-{4-[3-(4-Ethoxy-2-fluoro-phenoxy)-azetidin-1-yl]-phenyl}-ethyl)-1,1-dimethyl-urea]
The IC50 of the first is 5.8-fold higher: 1.44 µM for the first, 0.25 µM for the second.

With `C[C@H](NC(=O)C1CC1)c1ccc(N2CC(Oc3ccc4c(c3)OCO4)C2)cc1` [Example 10.28] the IC50 was 2.08 µM.
